Measurements taken from patent US8158657B2, “Heterocycles substituted pyridine derivatives and antifungal agent containing thereof” (Eisai R&D Management Co., Ltd., priority 2005, dated 2012).
In brackets after ≈: the same amount, converted by molar mass.

Assays:
[1] = system: C. albicans CAF2-1 strain; experiment: Anti-Candida activity, MIC measurement; format: cell-based; settings: CAF21STRAIN, C. albicans CAF2-1, RPMI1640, 42-48 hours at 35° C., visual inspection, read-out: Anti-Candida Activity (minimum inhibitory concentration, MIC)
Method: (§1) For the C. albicans CAF2-1 strain, a fungal suspension from a standing culture for 48 hours at 30° C. in a Sabouraud dextrose liquid culture medium (SDB) was diluted with RPMI1640 medium to adjust a fungal suspension of 1.2×10^3 cells/mL. For the A. fumigatus Tsukuba strain, −80° C. stored strain was diluted with RPMI1640 medium to adjust to a fungal suspension of 4.5×10^3 cells/mL.
(§2) Using a U-bottomed 96 well plate, 8 samples/plate (A to H) of sample dilution solutions were prepared. On the 2nd to 12th rows were dispensed 10 μL of dimethyl sulfoxide solution. Weighted sample was dissolved in dimethyl sulfoxide to prepare a 2.5 mg/mL solution, 20 μL of this solution was added to the first row of the prepared plate, and 12 steps of two-fold step dilutions (10 μL of solution+10 μL of dimethyl sulfoxide solution) were performed on the plate. This sample dilution solution was dispensed in the amount of 1 μL to a flat-bottomed 96 well plate for MIC measurement to prepare a sample dilution plate.
(§3) The fungal suspension prepared in (1) was used in the amount of 99 μL/well to inoculate the flat-bottomed 96 well plate containing 1 μL/well of the test compound dilution prepared in (2), and a standing culture was carried out aerobically for 42-48 hours at 35° C.

[2] = system: A. fumigatus Tsukuba strain; experiment: Anti-Aspergillus activity, MIC measurement; format: cell-based; settings: RPMI1640, 42-48 hours at 35° C., visual inspection, read-out: Anti-Aspergillus Activity (minimum inhibitory concentration, MIC)
Method: as §1, §2, §3

Structure (SMILES)	MIC [1] [µg/mL]	MIC [2] [µg/mL]
Nc1ccc(-c2cc(Cc3ccc(OCc4ccc(Cl)cn4)cc3)no2)c(N)n1 [Example 122, 3-(3-(4-(5-Chloro-pyridin-2-ylmethoxy)-benzyl)-isoxazol-5-yl)-pyridin-2,6-diamine]	1.56 (≈ 3.82 µM)	0.78 (≈ 1.91 µM)
Nc1ccc(-c2cc(Cc3cccc(Oc4ccccc4)c3)no2)c(N)n1 [Example 123, 3-(3-(3-Phenoxy-benzyl)-isoxazol-5-yl)-pyridin-2,6-diamine]	0.2 (≈ 0.558 µM)	0.39 (≈ 1.09 µM)
CCCCOc1cccc(Cc2cc(-c3ccc(N)nc3N)on2)c1 [Example 124, 3-(3-(3-Butoxy-benzyl)-isoxazol-5-yl)-pyridin-2,6-diamine]	0.2 (≈ 0.591 µM)	0.39 (≈ 1.15 µM)
Nc1ccc(-c2cc(Cc3cccc(OCC4CC4)c3)no2)c(N)n1 [Example 125, 3-(3-(3-Cyclopropylmethoxy-benzyl)-isoxazol-5-yl)-pyridin-2,6-diamine]	0.1 (≈ 0.297 µM)	0.39 (≈ 1.16 µM)
CCCCOc1ccc(Cc2cc(-c3ccc(N)nc3N)on2)cc1 [Example 126, 3-(3-(4-Butoxy-benzyl)-isoxazol-5-yl)-pyridin-2,6-diamine]	1.56 (≈ 4.61 µM)	0.39 (≈ 1.15 µM)
Nc1ccc(-c2cc(Cc3ccc(OCc4ccccc4)cn3)no2)c(N)n1 [Example 127, 3-(3-(5-Benzyloxy-pyridin-2-ylmethyl)-isoxazol-5-yl)-pyridin-2,6-diamine]	0.78 (≈ 2.09 µM)	1.56 (≈ 4.18 µM)
Nc1ccc(-c2cc(Cc3ccc(NCc4ccccc4)cc3)no2)c(N)n1 [Example 128, 3-(3-(4-Benzylamino-benzyl)-isoxazol-5-yl)-pyridin-2,6-diamine]	0.2 (≈ 0.538 µM)	0.39 (≈ 1.05 µM)
Nc1ccc(-c2cc(Cc3ccc(Nc4ccccc4)cc3)no2)c(N)n1 [Example 129, 3-(3-(4-Phenylamino-benzyl)-isoxazol-5-yl)-pyridin-2,6-diamine]	0.2 (≈ 0.56 µM)	0.2 (≈ 0.56 µM)
CCCCc1ccc(Cc2cc(-c3ccc(N)nc3N)on2)cc1 [Example 130, 3-(3-(4-Butyl-benzyl)-isoxazol-5-yl)-pyridin-2,6-diamine]	1.56 (≈ 4.84 µM)	0.2 (≈ 0.62 µM)
Nc1ccc(-c2cc(Cc3ccc(COc4ccc(F)cc4)nc3)no2)c(N)n1 [Example 132, 3-(3-(6-(4-Fluoro-phenoxymethyl)-pyridin-3-ylmethyl)-isoxazol-5-yl)pyridin-2,6-diamine]	3.13 (≈ 8 µM)	3.13 (≈ 8 µM)
Nc1ccc(-c2cc(Cc3ccc(Oc4ccccc4F)nc3)no2)c(N)n1 [Example 134, 3-(3-(6-(2-Fluoro-phenoxy)-pyridin-3-ylmethyl)-isoxazol-5-yl)-pyridin-2,6-diamine]	0.39 (≈ 1.03 µM)	0.78 (≈ 2.07 µM)
Nc1ccc(-c2cc(Cc3ccc(OCc4ccsc4)cc3)no2)c(N)n1 [Example 136, 3-(3-(4-(Thiophen-3-ylmethoxy)-benzyl)-isoxazol-5-yl)-pyridin-2,6-diamine]	0.2 (≈ 0.528 µM)	0.2 (≈ 0.528 µM)
Nc1ccc(-c2cc(Cc3ccc(OC4CCCC4)cc3)no2)c(N)n1 [Example 137, 3-(3-(4-Cyclopentyloxy-benzyl)-isoxazol-5-yl)-pyridin-2,6-diamine]	0.78 (≈ 2.23 µM)	1.56 (≈ 4.45 µM)
Nc1ccc(-c2cc(Cc3ccc(Oc4cccnc4)cc3)no2)c(N)n1 [Example 138, 3-(3-(4-(Pyridin-3-yloxy)-benzyl)-isoxazol-5-yl)-pyridin-2,6-diamine]	0.78 (≈ 2.17 µM)	0.78 (≈ 2.17 µM)
Nc1ccc(-c2cc(Cc3ccc(OC4CCCCC4)cc3)no2)c(N)n1 [Example 139, 3-(3-(4-Cyclohexyloxy-benzyl)-isoxazol-5-yl)-pyridin-2,6-diamine]	1.56 (≈ 4.28 µM)	> 25
Nc1ccc(-c2cc(Cc3ccc(CCc4ccco4)cc3)no2)c(N)n1 [Example 140, 3-(3-(4-(2-Furan-2-yl-ethyl)-benzyl)-isoxazol-5-yl)-pyridin-2,6-diamine]	0.2 (≈ 0.555 µM)	0.78 (≈ 2.16 µM)
Nc1ccc(-c2cc(Cc3ccc(Oc4ccc(F)cc4)cc3)no2)c(N)n1 [Example 141, 3-(3-(4-(4-Fluoro-phenoxy)-benzyl)-isoxazol-5-yl)-pyridin-2,6-diamine]	0.39 (≈ 1.04 µM)	0.2 (≈ 0.531 µM)
Nc1ccc(-c2cc(Cc3ccc(Oc4cccc(F)c4)cc3)no2)c(N)n1 [Example 142, 3-(3-(4-(3-Fluoro-phenoxy)-benzyl)-isoxazol-5-yl)-pyridin-2,6-diamine]	0.39 (≈ 1.04 µM)	0.39 (≈ 1.04 µM)
Nc1ccc(-c2cc(Cc3ccc(CCC4CCCO4)cc3)no2)c(N)n1 (centres unmarked) [Example 143]	0.39 (≈ 1.07 µM)	0.78 (≈ 2.14 µM)

Structure (SMILES)	MIC [1] [µg/mL]	MIC [2] [µg/mL]
Nc1ccc(-c2cc(Cc3ccc(Oc4ccccc4F)cc3)no2)c(N)n1 [Example 144, 3-(3-(4-(2-Fluoro-phenoxy)-benzyl)-isoxazol-5-yl)-pyridin-2,6-diamine]	0.39 (≈ 1.04 µM)	0.2 (≈ 0.531 µM)
Nc1ccc(-c2cc(Cc3cncc(Oc4ccccc4)c3)no2)c(N)n1 [Example 145, 3-(3-(5-Phenoxy-pyridin-3-ylmethyl)-isoxazol-5-yl)-pyridin-2,6-diamine]	6.25 (≈ 17.4 µM)	12.5 (≈ 34.8 µM)
Nc1ccc(-c2cc(Cc3cccc(-c4ccccn4)c3)no2)c(N)n1 [Example 146, 3-(3-(3-Pyridin-2-yl-benzyl)-isoxazol-5-yl)-pyridin-2,6-diamine]	6.25 (≈ 18.2 µM)	> 25
Nc1ccc(-c2cc(Cc3cccc(-c4ccccc4)c3)no2)c(N)n1 [Example 147, 3-(3-Biphenyl-3-ylmethyl-isoxazol-5-yl)-pyridin-2,6-diamine]	1.56 (≈ 4.56 µM)	1.56 (≈ 4.56 µM)
Nc1ccc(-c2cc(Cc3ccc(COc4ccccc4)cc3)no2)c(N)n1 [Example 148, 3-(3-(4-Phenoxymethyl-benzyl)-isoxazol-5-yl)-pyridin-2,6-diamine]	0.2 (≈ 0.537 µM)	0.2 (≈ 0.537 µM)
Nc1ccc(-c2cc(Cc3ccc(COc4ncccc4F)cc3)no2)c(N)n1 [Example 149, 3-(3-(4-(3-Fluoro-pyridin-2-yloxymethyl)-benzyl)-isoxazol-5-yl)-pyridin-2,6-diamine]	6.25 (≈ 16 µM)	1.56 (≈ 3.99 µM)
Nc1ccc(-c2cc(Cc3ccc(OCc4ccccn4)c(F)c3)no2)c(N)n1 [Example 150, 3-(3-(3-Fluoro-4-(pyridin-2-ylmethoxy)-benzyl)-isoxazol-5-yl)-pyridin-2,6-diamine]	0.39 (≈ 0.996 µM)	0.78 (≈ 1.99 µM)
Nc1ccc(-c2cc(Cc3ccc(OCc4ccc(F)c(F)c4)nc3)no2)c(N)n1 [Example 152, 3-(3-(6-(3,4-Difluoro-benzyloxy)-pyridin-3-ylmethyl)-isoxazol-5-yl)-pyridin-2,6-diamine]	0.78 (≈ 1.91 µM)	0.39 (≈ 0.953 µM)
Nc1ccc(-c2cc(Cc3ccc(OCc4ccc(F)cc4F)nc3)no2)c(N)n1 [Example 153, 3-(3-(6-(2,4-Difluoro-benzyloxy)-pyridin-3-ylmethyl)-isoxazol-5-yl)-pyridin-2,6-diamine]	1.56 (≈ 3.81 µM)	0.39 (≈ 0.953 µM)
Nc1ccc(-c2cc(Cc3ccc(COc4ccccn4)nc3)no2)c(N)n1 [Example 154]	0.78 (≈ 2.08 µM)	1.56 (≈ 4.17 µM)
Cc1ccc(Cc2ccc(Cc3cc(-c4ccc(N)nc4N)on3)s2)cc1 [Example 156, 3-(3-(5-(4-Methyl-benzyl)-thiophen-2-ylmethyl)-isoxazol-5-yl)-pyridin-2,6-diamine]	0.2 (≈ 0.531 µM)	0.2 (≈ 0.531 µM)
Nc1ccc(-c2cc(Cc3ccc(OCc4ccc(F)cn4)c(F)c3)no2)c(N)n1 [Example 157, 3-(3-(3-Fluoro-4-(5-fluoro-pyridin-2-ylmethoxy)-benzyl)-isoxazol-5-yl)pyridin-2,6-diamine]	3.13 (≈ 7.65 µM)	0.78 (≈ 1.91 µM)
Nc1ccc(-c2cc(Cc3ccc(OCc4ccccn4)cc3F)no2)c(N)n1 [Example 158, 3-(3-(2-Fluoro-4-(pyridin-2-ylmethoxy)-benzyl)-isoxazol-5-yl)-pyridin-2,6-diamine]	1.56 (≈ 3.99 µM)	3.13 (≈ 8 µM)
Nc1ccc(-c2cc(Cc3ccc(CCc4ccccn4)cc3)no2)c(N)n1 [Example 159, 3-(3-(4-(2-Pyridin-2-yl-ethyl)-benzyl)-isoxazol-5-yl)-pyridin-2,6-diamine]	0.78 (≈ 2.1 µM)	3.13 (≈ 8.43 µM)
Nc1ccc(-c2cc(Cc3ccn(Cc4cccc(F)c4)c3)no2)c(N)n1 [Example 160, 3-(3-(1-(3-Fluoro-benzyl)-1H-pyrrol-3-ylmethyl)-isoxazol-5-yl)-pyridin-2,6-diamine]	0.39 (≈ 1.07 µM)	0.78 (≈ 2.15 µM)
Nc1ccc(-c2cc(Cc3ccc(Sc4ccccc4)nc3)no2)c(N)n1 [Example 161, 3-(3-(6-Phenylsulfanyl-pyridin-3-ylmethyl)-isoxazol-5-yl)-pyridin-2,6-diamine]	0.39 (≈ 1.04 µM)	0.39 (≈ 1.04 µM)
COc1cccc(COc2ccc(Cc3cc(-c4ccc(N)nc4N)on3)cc2)c1 [Example 162, 3-(3-(4-(3-Methoxy-benzyloxy)-benzyl)-isoxazol-5-yl)-pyridin-2,6-diamine]	0.78 (≈ 1.94 µM)	0.39 (≈ 0.969 µM)
COc1cccc(COc2ccc(Cc3cc(-c4ccc(N)nc4N)on3)cc2)n1 [Example 163, 3-(3-(4-(6-Methoxy-pyridin-2-ylmethoxy)-benzyl)-isoxazol-5-yl)-pyridin-2,6-diamine]	3.13 (≈ 7.76 µM)	1.56 (≈ 3.87 µM)
